# Assay: in vitro
# Assay type: in vitro ADME
# Conditions: plasma
# Procedure: The plasma protein binding (PPB) and blood plasma ratio (BPR) are crucial parameters influencing the drug distribution and elimination in plasma. The PPB profile of 25a was evaluated by equilibrium dialysis, a classic method to assess the interactions of small molecules with proteins. The PPB of 25a was tested at 50, 500, and 2500 ng/mL (Table 7). […] When considering the allometric scaling of PK parameters, the species difference of protein binding between humans and rats should be considered.
# The plasma protein binding (PPB) ratio of 25a was assessed via equilibrium dialysis in SD rats and human plasma. Four hundred microliters of plasma containing 50, 500, or 2500 ng/mL 25a were loaded into the dialysis bags (plasma side), and the bags were placed into tubes containing 4 mL of the dialysis buffer (buffer side). The tubes were then rotated at approximately 100 rpm in a humidified incubator with 5% CO2 at 37 ± 1 °C for 5 h.
# After the 5 h dialysis, aliquots of 50 μL samples were taken from both the buffer and the plasma sides. An equal volume of the opposite blank matrix (buffer or plasma) was added to each sample to reach a final volume of 100 μL with a volume ratio of plasma to dialysis buffer at 1:1 (v/v). […] The PPB ratio (%) was calculated by PPB% = 100% × (1 − Conc.buffer side/Conc.plasma side).
compound,measurement,value
CC(=O)CC(c1ccccc1)c1c(O)c2ccccc2oc1=O (stereo not shown) [warfarin],fraction unbound at 5 h,0.015

# Reference: publication PMC9027532, “Preclinical Pharmacokinetic Studies of a Novel Diuretic Inhibiting Urea Transporters” (Molecules, 2022)
